Source: ChEMBL document CHEMBL1121775, “Synthesis and antimalarial effects of N2-aryl-N4-[(dialkylamino)alkyl]- and N4-aryl-N2-[(dialkylamino)alkyl]-2,4-quinazolinediamines” (J Med Chem, 1981)
Where “and” joins values, the source holds several entries; their conditions need not be identical. Equal values may be shown once.

Legend:
Plasmodium berghei [1] = assay: Antimalarial effect against trophozoite-induced Plasmodium berghei in mice (Mus musculus) after 40 mg/kg subcutaneous dose; assay type: functional
Plasmodium berghei [2] = assay: Antimalarial activity against trophozoite-induced Plasmodium berghei in mice (Mus musculus); assay type: functional
Mus musculus [3] = assay: (§1) Number of toxic deaths at a dose of 640 mg/kg; assay type: toxicity, organism-based; design: dose 640 mg/kg; settings: in vivo
Plasmodium berghei [4] = assay: Antimalarial effect against trophozoite-induced Plasmodium berghei in mice (Mus musculus) at 160 mg/kg subcutaneous dose; assay type: functional
[5] = The ratio of SD90 of the quinine hydrochloride, to the SD90 of the test substance for the Dose of >30 mg/kg; assay type: functional
Mus musculus [6] = assay: Number of mice cured at a subcutaneous dose of 320 mg/kg.; assay type: functional
[7] = The ratio of SD90 of the quinine hydrochloride, to the SD90 of the test substance for the Dose of 0.28 mg/kg; assay type: functional
Mus musculus [8] = assay: Number of mice cured at a dose of 640 mg/kg sc; assay type: functional; settings: route subcutaneous
Mus musculus [9] = assay: Number of mice cured at a dose of 80 mg/kg sc; assay type: functional; settings: route subcutaneous
Mus musculus [10] = assay: Number of mice cured at a subcutaneous dose of 160 mg/kg.; assay type: functional
Plasmodium berghei [11] = assay: Antimalarial effect against trophozoite-induced Plasmodium berghei in mice (Mus musculus) after 20 mg/kg subcutaneous dose; assay type: functional
Mus musculus [12] = assay: Number of mice cured at a dose of 40 mg/kg sc; assay type: functional; settings: route subcutaneous
Plasmodium berghei [13] = assay: (§2) Antimalarial effect against trophozoite-induced Plasmodium berghei in mice (Mus musculus) at 640 mg/kg subcutaneous dose; assay type: functional
Plasmodium berghei [14] = assay: as §2; assay type: functional; remark: listed apart in the source
Plasmodium berghei [15] = assay: Antimalarial effect against trophozoite-induced Plasmodium berghei in mice (Mus musculus) at 80 mg/kg subcutaneous dose; assay type: functional
Plasmodium berghei [16] = assay: Antimalarial effect against trophozoite-induced Plasmodium berghei in mice (Mus musculus) at 320 mg/kg subcutaneous dose; assay type: functional
Mus musculus [17] = assay: Number of toxic deaths at dose of 640 mg/kg; assay type: toxicity, organism-based; design: dose 640 mg/kg; settings: in vivo
Mus musculus [18] = assay: Number of toxic deaths at doae of 320 mg/kg; assay type: toxicity, organism-based; design: dose 320 mg/kg; settings: in vivo
Mus musculus [19] = organism: Mus musculus; assay: Antimalarial effect against trophozoite-induced Plasmodium berghei in mice (Mus musculus); assay type: functional
Mus musculus [20] = assay: Antimalarial effect against trophozoite induced Plasmodium berghei in mice (Mus musculus) at dosage of 40 mg/kg after subcutaneous administration; assay type: functional
[21] = The ratio of SD90 of the quinine hydrochloride, to the SD90 of the test substance for the Dose of 25 mg/kg; assay type: functional
Mus musculus [22] = assay: Antimalarial effect against trophozoite induced Plasmodium berghei in mice (Mus musculus) at dosage of 640 mg/kg after subcutaneous administration; No. of mice (Mus musculus) surviving after 60 days 3; assay type: functional
Mus musculus [23] = assay: Number of mice cured at a dose of 320 mg/kg sc; assay type: functional; settings: route subcutaneous
Mus musculus [24] = assay: Number of mice cured at a subcutaneous dose of 640 mg/kg.; assay type: functional
[25] = The ratio of SD90 of the quinine hydrochloride, to the SD90 of the test substance for the Dose of 10.5 mg/kg; assay type: functional
[26] = The ratio of SD90 of the quinine hydrochloride, to the SD90 of the test substance for the Dose of 50 mg/kg; assay type: functional
Mus musculus [27] = assay: as §1; assay type: functional
Plasmodium berghei [28] = assay: Antimalarial activity against trophozoite-induced Plasmodium berghei in mice (Mus musculus) at 160 mg/kg subcutaneous dose; assay type: functional
[29] = The ratio of SD90 of the quinine hydrochloride, to the SD90 of the test substance for the Dose of >37 mg/kg; assay type: functional
[30] = The ratio of SD90 of the quinine hydrochloride, to the SD90 of the test substance for the Dose of >147 mg/kg; assay type: functional
Mus musculus [31] = assay: Antimalarial effect against trophozoite-induced Plasmodium berghei in mice (Mus musculus) at dosage of 80 mg/kg after subcutaneous administration; No. of mice (Mus musculus) surviving after 60 days 1; assay type: functional
Mus musculus [32] = assay: Antimalarial effect against trophozoite induced Plasmodium berghei in mice (Mus musculus) at dosage of 160 mg/kg after subcutaneous administration; No. of mice (Mus musculus) surviving after 60 days 1; assay type: functional
Mus musculus [33] = assay: Antimalarial effect against trophozoite-induced Plasmodium berghei in mice (Mus musculus) at dosage of 80 mg/kg after subcutaneous administration; assay type: functional
Mus musculus [34] = assay: (§3) The ratio of SD90 of the quinine hydrochloride, to the SD90 of the test substance for the Dose of 8.5 mg/kg; assay type: functional
[35] = as §3; assay type: functional

Row | SMILES | MST (Plasmodium berghei [1]) | SD90 (Plasmodium berghei [2]) | No. of toxic deaths (Mus musculus [3]) | MST (Plasmodium berghei [11]) | MST (Plasmodium berghei [1]; 40 mg/kg) | MST (Plasmodium berghei [13]) | MST (Plasmodium berghei [14]) | MST (Plasmodium berghei [15]) | MST (Plasmodium berghei [16]) | MST (Plasmodium berghei [4]; 160 mg/kg) | other results
1 | CCOc1ccc(Nc2nc(NCCN(CC)CC)c3ccc(Cl)cc3n2)cc1CN(CC)CC | 0.6 days | >30 mg/kg/day | 5 |  |  |  |  |  |  |  | MST (Plasmodium berghei [4]): 0.8 days; Ratio [5]: <2.5
2 | CCc1nc(N)nc(N)c1-c1ccc(Cl)cc1 [PYRIMETHAMINE] |  | 0.28 mg/kg/day |  | 7.7 days |  |  |  |  |  |  | No. of survivals (Mus musculus [6]; 320 mg/kg): 2 and 3; Ratio [7]: 270; No. of survivals (Mus musculus [8]; 640 mg/kg): 1 and 2; No. of survivals (Mus musculus [9]): 3; No. of survivals (Mus musculus [10]): 5; No. of survivals (Mus musculus [12]): 1
3 | CCN(CC)CCCC(C)Nc1nc(Nc2ccc([N+](=O)[O-])cc2)c2ccccc2n1 (configuration not stated) |  |  |  | 0 days | 0.8 days and 0.6 days | 5 days | 4.3 days | 1.4 days | 5 days | 2.6 days and 3.2 days | No. of toxic deaths (Mus musculus [17]): 5; No. of toxic deaths (Mus musculus [18]): 2
4 | OC1CCCN(CCCNc2nc(Nc3ccc(I)cc3)nc3ccccc23)C1 (configuration not stated) | 1.2 days |  |  | 1 days |  | 20.1 days | 24.1 days | 4 days | 13.1 days | 8 days and 5.8 days | SD90 (Mus musculus [19]): 25 mg/kg/day; No. of survivals (Mus musculus [6]): 1; MST (Mus musculus [20]): 0.8 days; No. of survivals (Mus musculus [8]): 2; Ratio [21]: 3
5 | CN1CCCC1CCNc1nc(Nc2ccc(Cl)c(Cl)c2)nc2ccccc12 (configuration not stated) | 4 days | 10.5 mg/kg/day |  |  |  | 29.8 days |  | 8 days | 20.8 days | 13.2 days and 13.9 days | MST (Mus musculus [22]): 28.9 days; No. of cured (Mus musculus [23]): 2; No. of cured (Mus musculus [24]): 4; Ratio [25]: 7.1; MST (Plasmodium berghei [11]; 20 mg/kg): 3 days and 3.9 days
6 | CCN(CC)CCNc1nc(Nc2ccc(N3CCN(C)CC3)cc2)nc2ccccc12 |  | 50 mg/kg/day | 3 | 0.2 days | 1 days and 0.8 days |  |  | 3.4 days | 5.2 days | 4.8 days and 4.2 days | Ratio [26]: 1.5; MST (Plasmodium berghei [13]; 640 mg/kg): 6.8 days and 6.3 days; No. of toxic deaths (Mus musculus [27]): 3
7 | c1ccc2c(NCCCN3CCCC3)nc(Nc3ccncc3)nc2c1 | 0.3 days | >37 mg/kg/day | 5 and 2 |  |  |  |  |  |  |  | MST (Plasmodium berghei [28]): 0.9 days; Ratio [29]: <2
8 | OC1CCCN(CCCNc2nc(Nc3nc(-c4ccccc4)cs3)nc3ccccc23)C1 (configuration not stated) | 0.2 days | >147 mg/kg/day |  |  |  |  | 0.8 days |  |  |  | MST (Plasmodium berghei [4]): 0.4 days; Ratio [30]: <0.5
9 | CCN(CC)C1CCC(Nc2nc(Nc3ccc(Cl)c(Cl)c3)nc3ccccc23)CC1 (configuration not stated) |  | 8.5 mg/kg/day |  | 0.9 days | 10.1 days and 10.5 days |  |  |  | 22.9 days |  | MST (Plasmodium berghei [28]; 160 mg/kg): 13.9 days and 13.7 days; MST (Mus musculus [31]): 10.4 days; MST (Mus musculus [32]): 13.7 days; No. of cured (Mus musculus [23]): 5; MST (Mus musculus [33]): 10.4 days; No. of survivals (Mus musculus [10]): 1; Ratio (Mus musculus [34]): 8.8; Ratio [35]: 8.8
